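Values below derive from 48-hour exposures of cells grown in 96-well plates, with endpoints linearly interpolated between the two concentrations bracketing the appropriate inhibition level. The concentration for 50% growth inhibition is given as GI50. TGI marks complete inhibition of growth.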
Key:
Assay in all cases: DTP human tumour cell line panel, 48 h
[1] = test system: HCT-15 colon
[2] = test system: HS 578T breast
[3] = test system: M14 melanoma
[4] = test system: MDA-MB-435
[5] = test system: OVCAR-3 ovarian
[6] = test system: OVCAR-4 ovarian
[7] = test system: OVCAR-5 ovarian
[8] = test system: OVCAR-8 ovarian
[9] = test system: SF-268 CNS
[10] = test system: SF-295 CNS
[11] = test system: SF-539 CNS
[12] = test system: TK-10 renal
[13] = test system: HL-60(TB) leukemia
[14] = test system: U251 CNS

Compound	TGI [1] [µM]	TGI [2] [µM]	TGI [3] [µM]	TGI [4] [µM]	TGI [5] [µM]	TGI [6] [µM]	TGI [7] [µM]	TGI [8] [µM]	TGI [9] [µM]	TGI [10] [µM]	TGI [11] [µM]	TGI [12] [µM]	TGI [13] [µM]	TGI [14] [µM]	GI50 [13] [µM]	GI50 [5] [µM]	GI50 [7] [µM]	GI50 [10] [µM]	GI50 [11] [µM]	GI50 [12] [µM]
O=C(O)CN1CCCC(Cc2c[nH]c3ccccc23)C1 (stereo unspecified)	> 100	> 100	> 100	> 100	> 100	> 100	> 100	> 100	> 100	> 100	> 100	> 100	–	–	–	–	–	–	–	–
Brc1c2nc3ccccc3nc2n2ccc3ccccc3c12	> 100	–	> 100	–	> 100	> 100	> 100	> 100	> 100	–	> 100	> 100	> 100	> 100	–	–	–	–	–	–
O=C1CCCCC/C1=C\c1cccc([N+](=O)[O-])c1	–	–	> 100	> 100	> 100	–	> 100	> 100	40.6	50.4	48.7	97.2	57	> 100	–	–	–	–	–	–
NC(=O)COc1c(Br)cc(Br)cc1Br	> 100	–	> 100	–	> 100	> 100	> 100	> 100	> 100	> 100	> 100	–	–	> 100	–	–	–	–	–	–
Nc1ccc2nc(Nc3ccc(Cl)c(Cl)c3)cnc2c1	46.5	–	27.4	–	36.7	60.4	46.8	> 100	37.8	–	64.5	60.6	31.6	44.2	–	–	–	–	–	–
C=C1C(=O)[C@]23C[C@H]1C[C@@H](O)[C@H]2[C@]1(COC3=O)[C@@H](OC(C)=O)CC[C@@](C)(COC(C)=O)[C@H]1C=O	> 50	> 50	–	> 50	> 50	> 50	> 50	> 50	43.5	> 50	–	> 50	16.6	> 50	–	–	–	–	–	–
CCOC(=O)CCC(NC(=O)c1ccc(Nc2nc3cc(C(F)(F)F)ccc3nc2C(=O)OCC)cc1)C(=O)OCC (stereo unspecified)	> 100	–	16.9	21.9	26.7	–	39.5	24.6	28.6	19.3	25.2	–	> 100	23.3	–	–	–	–	–	–
CCCCCCCCCCCCCCCCNCC(O)CN (stereo unspecified)	4.38	–	–	–	6.52	12.1	19.7	12.3	12.9	6.93	4.72	–	4.93	6.26	–	–	–	–	–	–
O=C(NC12CC3CC(CC(C3)C1)C2)C(=O)c1c[nH]c2ccc(Br)cc12	> 100	–	31.4	–	38.6	35.5	> 100	87.3	34.2	19.8	51.3	92.6	> 100	49.2	–	–	–	–	–	–
CC(C)(C)c1ccc(O)c(C(c2ccc([N+](=O)[O-])cc2)c2cc(C(C)(C)C)ccc2O)c1	4.27	18.7	3.16	–	3.25	3.91	3.25	7.82	3.16	3.64	3.46	7.39	3.95	4.81	–	–	–	–	–	–
Fc1ccc2[nH]cc(-c3nc(-c4c[nH]c5ccncc45)cs3)c2c1	–	–	–	–	3.3	–	3.38	–	–	3.1	2.88	3.91	4.58	–	2.07	1.8	1.93	1.68	1.52	2.3
CCCc1n[nH]c(=O)n1N1C(=O)C=CC1=O	> 100	–	> 100	> 100	> 100	> 100	> 100	–	–	> 100	> 100	> 100	–	> 100	–	–	–	–	–	–
C/C=C/c1cc2c(c(=O)o1)C(=O)[C@@H](O)[C@H](C)O2	25.9	–	–	–	32.8	29.7	31.1	35	30	41.6	33.6	–	54.4	32.9	–	–	–	–	–	–
C=CC(C)(C)C1(CC(OC)OC)C(=O)N(C)c2ccccc21 (stereo unspecified)	> 25	> 25	> 25	> 25	> 25	> 25	> 25	> 25	> 25	> 25	–	–	> 25	> 25	–	–	–	–	–	–
COc1cccc2c1C(=O)c1c(O)c3c(c(O)c1C2=O)C[C@@](O)(C(=O)CN1CCOCC1)C[C@@H]3OC1CC(N)C(O)C(C)O1 (stereo partly specified)	77.6	–	–	–	57.4	69.6	57.6	89.5	51.3	39.3	23.6	–	5.19	> 100	–	10.6	–	–	–	–
Cc1c(-c2coc(-c3ccccc3)n2)c(=O)n(-c2ccccc2)n1C	> 100	–	> 100	–	> 100	> 100	> 100	> 100	> 100	> 100	> 100	> 100	> 100	> 100	–	–	–	–	–	–
O=C(/C=C/c1ccc2c(c1)OCO2)NCCc1ccco1	–	> 100	> 100	> 100	> 100	> 100	> 100	> 100	> 100	> 100	> 100	> 100	–	> 100	–	–	–	–	–	–
CC(=O)NNc1nc(C)c(C(/C=C/c2ccc([N+](=O)[O-])cc2)=N/NC(N)=O)s1	> 100	> 100	> 100	> 100	> 100	> 100	> 100	> 100	> 100	> 100	> 100	> 100	–	> 100	–	–	–	–	–	–
N/C(=N\S(=O)(=O)c1ccc(-c2ccccn2)s1)Nc1ccc(Cl)cc1	38	59.6	33.6	–	67.6	37.7	40.2	37.6	36.6	40.3	29.7	32.1	–	28.6	–	–	–	–	–	–
CCCCOc1c(C(=O)O)cc(Br)cc1C(=O)O	> 100	–	> 100	> 100	> 100	> 100	> 100	> 100	> 100	> 100	> 100	> 100	–	> 100	–	–	–	–	–	–
Clc1ccc2nc3n[nH]c(Cl)c3nc2c1	> 100	63.6	> 100	> 100	> 100	> 100	> 100	> 100	> 100	> 100	> 100	> 100	–	> 100	–	–	–	–	–	–
CCOC(=O)C1(C#N)C2(C#N)C(N)=NC(ON=C(C)C)(ON=C(C)C)C12C#N (stereo unspecified)	> 100	> 100	> 100	> 100	–	> 100	> 100	> 100	> 100	> 100	–	> 100	> 100	> 100	–	–	–	–	–	–
N#CNC(=NCc1ccccc1)NCCc1c[nH]c2ccccc12	> 100	–	> 100	–	> 100	> 100	> 100	> 100	> 100	> 100	> 100	> 100	> 100	> 100	–	–	–	–	–	–
Nc1ncnc2c1sc(=S)n2-c1ccccc1	> 100	–	> 100	–	> 100	> 100	> 100	> 100	> 100	> 100	> 100	> 100	> 100	> 100	–	–	–	–	–	–
N=c1n(CC(=O)NC23CC4CC(CC(C4)C2)C3)c2ccccc2n1CC(=O)NC12CC3CC(CC(C3)C1)C2	3.31	–	3.38	–	3.32	3.38	3.08	3.13	3.72	3.52	3.36	3.08	4.82	3.02	–	–	–	–	–	–
CO[C@H]1CC[C@]2(C)C3=CC[C@@]4(C)C(CC[C@@H]4C(C)CC[C@@H](C)C(C)C)C(=CCC2C1)O3 (stereo partly specified)	> 25	–	> 25	–	> 25	> 25	> 25	> 25	> 25	> 25	> 25	> 25	> 25	> 25	–	–	–	–	–	–
C[N+](C)(C)CCOC(=O)/C=C/c1cnc[nH]1	> 500	–	–	–	> 500	> 500	> 500	> 500	> 500	> 500	> 500	–	> 500	> 500	–	–	–	–	–	–
CC(=O)Oc1c2c(c(OC(C)=O)c3c1n(C(C)=O)c1ccccc1n3C(C)=O)n(C(C)=O)c1ccccc1n2C(C)=O	13	–	20.7	–	5.68	40.5	–	–	24.9	28.9	30.8	–	6.1	29.5	–	–	–	–	–	–

Source: PubChem BioAssay (NCI)
